Source: the supplement of paper PMC10307832

What was measured:
Assay in all cases: relative viability (nuclei count vs DMSO), 5 days (fraction); higher = more cells survive
Tozasertib + Bortezomib = compound: Cc1cc(Nc2cc(N3CCN(C)CC3)nc(Sc3ccc(NC(=O)C4CC4)cc3)n2)n[nH]1 [Tozasertib] + CC(C)C[C@H](NC(=O)[C@H](Cc1ccccc1)NC(=O)c1cnccn1)B(O)O [Bortezomib] (partner 0.002 µM)
Method in brief: (§1)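 Lung cancer cell lines were pin-tool dosed in 1536-well plates on the day after seeding, with either a lone drug or a fixed anchor-drug dose plus five library-drug doses (not always all listed) in √10 steps. Nuclei were counted on 4× images after 5 days. Relative viability is the ratio of treated-well to vehicle-well nuclei counts, with each value a median of duplicate plates.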

Tozasertib + Palbociclib = compound: Cc1cc(Nc2cc(N3CCN(C)CC3)nc(Sc3ccc(NC(=O)C4CC4)cc3)n2)n[nH]1 [Tozasertib] + CC(=O)c1c(C)c2cnc(Nc3ccc(N4CCNCC4)cn3)nc2n(C2CCCC2)c1=O [Palbociclib] (partner 0.5 µM)
Method in brief: as §1

Tozasertib + Pictilisib = compound: Cc1cc(Nc2cc(N3CCN(C)CC3)nc(Sc3ccc(NC(=O)C4CC4)cc3)n2)n[nH]1 [Tozasertib] + CS(=O)(=O)N1CCN(Cc2cc3nc(-c4cccc5[nH]ncc45)nc(N4CCOCC4)c3s2)CC1 [Pictilisib] (partner 1 µM)
Method in brief: as §1

Tozasertib + Foretinib = compound: Cc1cc(Nc2cc(N3CCN(C)CC3)nc(Sc3ccc(NC(=O)C4CC4)cc3)n2)n[nH]1 [Tozasertib] + COc1cc2c(Oc3ccc(NC(=O)C4(C(=O)Nc5ccc(F)cc5)CC4)cc3F)ccnc2cc1OCCCN1CCOCC1 [Foretinib] (partner 0.25 µM)
Method in brief: as §1

Tozasertib + Phenformin = compound: Cc1cc(Nc2cc(N3CCN(C)CC3)nc(Sc3ccc(NC(=O)C4CC4)cc3)n2)n[nH]1 [Tozasertib] + N=C(N)NC(=N)NCCc1ccccc1 [Phenformin] (partner 250 µM)
Method in brief: as §1

Cell Line	relative viability (Tozasertib + Bortezomib; first compound 0.004 µM)	relative viability (Tozasertib + Bortezomib; first compound 0.01265 µM)	relative viability (Tozasertib + Bortezomib; first compound 0.04 µM)	relative viability (Tozasertib + Bortezomib; first compound 0.1265 µM)	relative viability (Tozasertib + Palbociclib; first compound 0.004 µM)	relative viability (Tozasertib + Palbociclib; first compound 0.01265 µM)	relative viability (Tozasertib + Palbociclib; first compound 0.04 µM)	relative viability (Tozasertib + Palbociclib; first compound 0.1265 µM)	relative viability (Tozasertib + Pictilisib; first compound 0.004 µM)	relative viability (Tozasertib + Pictilisib; first compound 0.01265 µM)	relative viability (Tozasertib + Pictilisib; first compound 0.04 µM)	relative viability (Tozasertib + Pictilisib; first compound 0.1265 µM)	relative viability (Tozasertib + Foretinib; first compound 0.004 µM)	relative viability (Tozasertib + Foretinib; first compound 0.01265 µM)	relative viability (Tozasertib + Foretinib; first compound 0.04 µM)	relative viability (Tozasertib + Foretinib; first compound 0.1265 µM)	relative viability (Tozasertib + Phenformin; first compound 0.004 µM)	relative viability (Tozasertib + Phenformin; first compound 0.01265 µM)	relative viability (Tozasertib + Phenformin; first compound 0.04 µM)	relative viability (Tozasertib + Phenformin; first compound 0.1265 µM)
NCI-H1755	0.938	0.927	1.04	0.626	0.456	0.461	0.442	0.442	0.422	0.395	0.444	0.232	0.984	0.455	0.893	0.743	0.593	0.597	0.592	0.483
PC-14	0.861	0.9	1.03	0.896	–	0.576	0.526	0.474	0.14	0.541	0.593	0.725	0.966	1.09	1.04	0.986	0.248	0.359	0.556	0.257
ChaGo-K-1	1.17	0.953	1.14	0.31	0.902	0.881	0.949	0.477	0.849	0.676	0.771	0.256	0.939	0.874	0.813	0.249	0.528	0.456	0.562	0.289
NCI-H2085	1.01	1.07	1.11	0.792	0.462	0.455	0.464	0.475	0.454	0.421	0.486	0.266	1.03	0.767	1.03	0.703	0.759	0.744	0.731	–
LU99A	1.1	0.917	0.881	–	0.423	0.386	0.369	0.324	0.338	0.339	0.3	0.216	0.798	0.629	0.796	0.487	0.903	0.819	0.773	0.646
NCI-H661	0.922	0.741	1.03	0.499	0.412	0.406	0.425	0.299	0.461	0.394	0.404	0.349	1.09	0.982	1.03	0.357	0.287	0.313	0.319	0.253
EMC-BAC-2	1.09	1.05	0.96	–	0.542	0.501	0.514	0.433	0.547	0.541	0.654	0.395	1.1	0.935	1.02	0.642	0.486	0.513	0.518	0.357
NCI-H3122	1.01	0.994	1.01	1.02	0.157	0.159	0.211	0.201	0.626	0.49	0.656	0.61	0.969	0.94	0.977	0.944	0.38	0.346	0.366	0.312
